# Results reported in ChEMBL document CHEMBL1148617, “Design, synthesis, and structure-activity relationships of 1-,3-,8-, and 9-substituted-9-deazaxanthines at the human A2B adenosine receptor” (J Med Chem, 2006).
# Key:
# [1] = target: T1, Adenosine receptor A2b (Homo sapiens) (UniProt P29275); test: Displacement of [3H]DPCPX from recombinant human adenosine A2B receptor expressed in HEK293 cells at 0.01 uM
# T1 sequence (whole entry): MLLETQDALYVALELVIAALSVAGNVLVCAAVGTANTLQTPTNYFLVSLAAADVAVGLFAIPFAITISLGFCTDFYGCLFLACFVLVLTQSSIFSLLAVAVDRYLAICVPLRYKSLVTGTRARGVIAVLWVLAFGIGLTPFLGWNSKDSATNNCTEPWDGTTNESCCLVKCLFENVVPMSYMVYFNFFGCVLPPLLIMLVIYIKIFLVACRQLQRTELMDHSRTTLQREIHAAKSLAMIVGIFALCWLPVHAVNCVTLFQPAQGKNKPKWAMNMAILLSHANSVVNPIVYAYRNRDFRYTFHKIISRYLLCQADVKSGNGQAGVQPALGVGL
# Adenosine receptor A2a [2] = target: T2, Adenosine receptor A2a (Homo sapiens, UniProt P29274); test: Displacement of [3H]ZM-241385 from recombinant human adenosine A2A receptor expressed in HeLa cells at 0.1 uM
# Adenosine receptor A2b = target: T3, Adenosine receptor A2b (Homo sapiens, UniProt P29275)
# T3 sequence (P29275 whole entry): T1 sequence (whole entry)
# Description: Binding affinity to recombinant human adenosine A2B receptor
# [3] = target: T1, Adenosine receptor A2b (Homo sapiens); test: Displacement of [3H]DPCPX from recombinant human adenosine A2B receptor expressed in HEK293 cells at 0.1 uM; type: cell-based
# Adenosine receptor A2a [4] = target: T2, Adenosine receptor A2a
# Description: Binding affinity to recombinant human adenosine A2A receptor
# T2 sequence (P29274 whole entry): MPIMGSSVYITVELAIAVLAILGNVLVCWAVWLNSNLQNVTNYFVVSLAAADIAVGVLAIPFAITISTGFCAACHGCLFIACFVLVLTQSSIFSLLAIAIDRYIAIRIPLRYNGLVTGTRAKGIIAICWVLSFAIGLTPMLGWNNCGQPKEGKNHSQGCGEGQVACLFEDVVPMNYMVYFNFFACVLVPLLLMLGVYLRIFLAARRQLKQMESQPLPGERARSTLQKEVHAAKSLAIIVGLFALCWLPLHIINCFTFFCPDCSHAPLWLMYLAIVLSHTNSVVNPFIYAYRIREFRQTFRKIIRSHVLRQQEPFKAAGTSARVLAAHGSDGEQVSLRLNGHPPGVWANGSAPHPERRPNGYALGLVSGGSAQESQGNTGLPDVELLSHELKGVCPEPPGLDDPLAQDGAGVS
inhibition [1] [%],inhibition (Adenosine receptor A2a [2]) [%],Ki (Adenosine receptor A2b) [µM],inhibition [3] [%],Ki (Adenosine receptor A2a [4]) [µM],Compound
15,37,0.0245,73,0.126,CCCn1c(=O)c2[nH]c(-c3ccc(OCC(=O)Nc4ccc(Br)cc4)cc3)c(Cl)c2n(CCC)c1=O
12,25,0.0513,66,0.182,Cn1c(=O)c2[nH]c(-c3ccc(OCC(=O)NCc4ccccc4)cc3)cc2n(C)c1=O
36,56,0.017,95,0.0437,Cn1c(=O)c2[nH]c(-c3ccc(OCC(=O)NCc4ccc(F)cc4)cc3)cc2n(C)c1=O
68,88,0.00479,100,0.0191,CCCn1c(=O)c2[nH]c(-c3ccc(OC(CC)C(=O)Nc4ccc(F)cc4)cc3)cc2n(CCC)c1=O (stereo not given)
20,8,0.0794,57,0.692,Cn1c(=O)c2[nH]c(-c3ccc(OCC(=O)NC4CCCC4)cc3)cc2n(C)c1=O
48,88,0.00977,93,0.0257,CCCn1c(=O)c2[nH]c(-c3ccc(OC(CC)C(=O)Nc4ccccc4)cc3)cc2n(CCC)c1=O (stereo not given)
45,22,0.00776,91,0.186,CCn1c(=O)c2[nH]c(-c3ccc(OCC(=O)Nc4ccccc4)cc3)cc2n(CC)c1=O
20,2,0.0135,79,0.12,CCn1c(=O)c2[nH]c(-c3ccc(OCC(=O)Nc4ccc(C#N)cc4)cc3)cc2n(CC)c1=O
12,9,0.0117,88,2.63,CCCn1c(=O)c2[nH]c(-c3ccc(OCC(=O)Nc4ccc(C(=O)OCC)cc4)cc3)cc2n(C)c1=O
57,93,0.00468,96,0.0155,O=C(COc1ccc(-c2cc3c([nH]2)c(=O)n(CC2CC2)c(=O)n3CC2CC2)cc1)Nc1ccccc1

# Further lines, the molecule ahead of its results:
Compound,inhibition [1] [%],inhibition (Adenosine receptor A2a [2]) [%],Ki (Adenosine receptor A2b) [µM],inhibition [3] [%],Ki (Adenosine receptor A2a [4]) [µM]
CCCn1c(=O)c2[nH]c(-c3ccc(N(C=O)CC(=O)Nc4ccc(Br)cc4)cc3)cc2n(CCC)c1=O,48,90,0.00776,93,0.0355
COc1cc(OCC(=O)NCc2ccc(Cl)cc2)ccc1-c1cc2c([nH]1)c(=O)n(C)c(=O)n2C,11,23,0.123,46,0.186
Cn1c(=O)c2[nH]c(-c3ccc(OCC(=O)NCc4ccco4)cc3)cc2n(C)c1=O,10,13,0.0708,52,0.316
COc1cc(-c2cc3c([nH]2)c(=O)n(C)c(=O)n3C)ccc1OCC(=O)Nc1ccc(F)cc1,10,35,0.145,45,0.0457
CCCn1c(=O)c2[nH]c(-c3ccc(OCC(=O)Nc4ccc(F)cc4)cc3)c(Br)c2n(CCC)c1=O,30,70,0.0126,72,0.02
CCCn1c(=O)c2[nH]c(-c3ccc(OCC(=O)Nc4ccc(C=O)cc4)cc3)cc2n(CCC)c1=O,13,13,0.0631,67,0.49
CCCn1c(=O)c2[nH]c(-c3ccc(OCC(=O)Nc4ccc(OC)nc4)cc3)cc2n(CCC)c1=O,41,50,0.0107,84,0.107
CCCn1c(=O)c2[nH]c(-c3ccc(OCC(=O)NCc4ccccc4)cc3)c(Cl)c2n(CCC)c1=O,10,43,0.0832,47,0.0603
